The source of these data is US20240352533A1, “Monocarboxylic Acid Transporter 4 as a Biomarker for Hypoxia Driven Tumor Growth and Treatment” (NantBio, Inc., priority 2023, published 2024).

This assay concerns Ishikawa cells. Description: Tumorsphere growth with and without Mct-4 overexpression. Type of assay: cell-based. The conditions noted are these: 72 hr. Here is the method:
After 18 hr, 10× drug was added, and after 72 hr, plates were imaged.

On to `Cc1cc(-c2nc(-c3ccc(OC(F)(F)F)cc3)no2)nn1Cc1ccnc(N2CCN(C3CC3)CC2)c1` [Bay87-2243], for which the tumorsphere growth entry (Ishikawa cells, 384-well round bottom) is given as “tumorsphere growth inhibition”. Also, for the setting “Mct-4 overexpressing Ishikawa cells”, the “tumorsphere growth inhibition under Mct-4 overexpression” value is “Mct-4 overexpression reverses tumorsphere growth inhibition”.
